These compounds were tested against T1, human PDE2A1 (Homo sapiens, UniProt O00408) (assay: IMAP FP PDE assay, human PDE2A1). Settings: Lab B; read-out: Human PDE2 Ki (nM) Lab B.
T1 construct: GST; purchased BPS Bioscience (San Diego, Calif.) 60020; host or cells: insect cells
Type: biochemical
Method in brief: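 GST-tagged human PDE2A1 from insect cells; substrate 50 nM FAM-cAMP containing 1000 nM cGMP in Tris pH 7.2/MgCl2/DTT buffer, enzyme giving 20% conversion. 60 min at room temperature, IMAP binding reagent, fluorescence polarization read. Apparent Ki from FP readings using apparent KM 10,000 nM; ten-point 3-fold titrations.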

T1 sequence (O00408 1-920 isoform O00408-2): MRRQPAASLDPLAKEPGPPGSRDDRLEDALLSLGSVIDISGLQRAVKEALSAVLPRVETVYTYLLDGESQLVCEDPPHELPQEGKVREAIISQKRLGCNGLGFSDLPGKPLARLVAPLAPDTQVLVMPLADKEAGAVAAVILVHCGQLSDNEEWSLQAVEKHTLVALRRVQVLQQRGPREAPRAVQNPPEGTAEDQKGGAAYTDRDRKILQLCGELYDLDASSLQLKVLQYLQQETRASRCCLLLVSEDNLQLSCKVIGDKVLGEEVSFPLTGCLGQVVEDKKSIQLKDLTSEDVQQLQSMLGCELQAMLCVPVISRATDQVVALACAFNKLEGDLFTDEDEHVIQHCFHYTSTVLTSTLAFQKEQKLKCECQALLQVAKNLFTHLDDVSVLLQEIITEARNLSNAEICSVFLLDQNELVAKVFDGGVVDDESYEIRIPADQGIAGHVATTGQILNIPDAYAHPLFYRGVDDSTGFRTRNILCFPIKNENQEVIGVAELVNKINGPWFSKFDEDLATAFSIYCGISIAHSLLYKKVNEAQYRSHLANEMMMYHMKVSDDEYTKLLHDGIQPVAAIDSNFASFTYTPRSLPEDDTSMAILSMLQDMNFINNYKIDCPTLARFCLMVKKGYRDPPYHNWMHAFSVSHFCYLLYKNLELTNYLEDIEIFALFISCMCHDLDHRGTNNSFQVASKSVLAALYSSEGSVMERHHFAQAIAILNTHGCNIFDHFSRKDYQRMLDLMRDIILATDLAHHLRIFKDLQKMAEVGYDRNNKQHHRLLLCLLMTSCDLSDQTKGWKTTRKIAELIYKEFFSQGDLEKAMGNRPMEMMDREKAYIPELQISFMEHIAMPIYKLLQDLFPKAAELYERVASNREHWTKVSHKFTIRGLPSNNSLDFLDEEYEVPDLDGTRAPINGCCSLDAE

| Compound | Ki [nM] |
| --- | --- |
| CC(C)c1nc2c(c(CO)nn2C(C)c2ccc(C(F)(F)F)cc2)c(=O)[nH]1 (racemic) [Example 296, 3-(Hydroxymethyl)-6-(1-methylethyl)-1-{1-[4-(trifluoromethyl)phenyl]ethyl}-1,5-dihydro-4H-pyrazolo[3,4-d]pyrimidin-4-one] | 39 |
| Cc1nc2c(c(CO)nn2C(C)c2ccc(C(F)(F)F)cc2F)c(=O)[nH]1 (single isomer, unassigned) [Example 17, (S)- or (R)-1-(1-(2-Fluoro-4-(trifluoromethyl)phenyl)ethyl)-3-(hydroxymethyl)-6-methyl-1H-pyrazolo[3,4-d]pyrimidin-4(5H)-one] | 2.1 |
| Cc1nc2c(c(CO)nn2C(C)c2ccc(C(F)(F)F)cc2Cl)c(=O)[nH]1 (single isomer, unassigned) [Example 19, (S)- or (R)-1-(1-(2-Chloro-4-(trifluoromethyl)phenyl)ethyl)-3-(hydroxymethyl)-6-methyl-1H-pyrazolo[3,4-d]pyrimidin-4(5H)-one] | 1.8 |
| Cc1nc2c(c(CO)nn2C(C)c2ccc(OC(F)F)cc2)c(=O)[nH]1 (single isomer, unassigned) [Example 21, (S)- or (R)-1-(1-(4-(Difluoromethoxy)phenyl)ethyl)-3-(hydroxymethyl)-6-methyl-1H-pyrazolo[3,4-d]pyrimidin-4(5H)-one] | 3.5 |
| Cc1nc2c(c(CO)nn2C(C)c2ccc(SC(F)(F)F)cc2)c(=O)[nH]1 (single isomer, unassigned) [Example 23, (S)- or (R)-3-(Hydroxymethyl)-6-methyl-1-(1-(4-(trifluoromethylthio)phenyl)ethyl)-1H-pyrazolo[3,4-d]pyrimidin-4(5H)-one] | 1.1 |
| Cc1nc2c(c(CO)nn2C(c2ccc(C(F)(F)F)cc2)C2(C)CC2)c(=O)[nH]1 (single isomer, unassigned) [Example 24, (R)- or (S)-3-(Hydroxymethyl)-6-methyl-1-((1-methylcyclopropyl)(4-(trifluoromethyl)phenyl)methyl)-1H-pyrazolo[3,4-d]pyrimidin-4(5H)-one] | 1.9 |
| Cc1nc2c(c(CC(F)(F)F)nn2C(c2ccc(C(F)(F)F)cc2)C(C)(C)C)c(=O)[nH]1 (single isomer, unassigned) [Example 57, (S)- or (R)-1-(2,2-Dimethyl-1-(4-(trifluoromethyl)phenyl)propyl)-6-methyl-3-(2,2,2-trifluoroethyl)-1H-pyrazolo[3,4-d]pyrimidin-4(5H)-one] | 62 |
| Cc1nc2c(c(CC(F)(F)F)nn2C(c2ccc(C(F)(F)F)cc2)C2(C)CC2)c(=O)[nH]1 (single isomer, unassigned) [Example 59, (S)- or (R)-6-Methyl-1-((1-methylcyclopropyl)(4-(trifluoromethyl)phenyl)methyl)-3-(2,2,2-trifluoroethyl)-1H-pyrazolo[3,4-d]pyrimidin-4(5H)-one] | 23 |
| Cc1nc2c(c(CO)nn2C(C)c2ccc(S(F)(F)(F)(F)F)cc2)c(=O)[nH]1 (single isomer, unassigned) [Example 77] | 3.3 |
| Cc1nc2c(c(CO)nn2C(c2ccc(C(F)(F)F)cc2)C(C)(C)C)c(=O)[nH]1 (single isomer, unassigned) [Example 83, (S)- or (R)-1-(2,2-Dimethyl-1-(4-(trifluoromethyl)phenyl)-propyl)-3-(hydroxymethyl)-6-methyl-1H-pyrazolo[3,4-d]pyrimidin-4(5H)-one] | 7.6 |
| Cc1nc2c(c(CO)nn2C(c2ccc(OC(F)(F)F)cc2)C(C)C)c(=O)[nH]1 (single isomer, unassigned) [Example 84, (R)- or (S)-3-(Hydroxymethyl)-6-methyl-1-(2-methyl-1-(4-(trifluoromethoxy)phenyl)propyl)-1H-pyrazolo[3,4-d]pyrimidin-4(5H)-one] | 11 |
| Cc1nc2c(c(CO)nn2C(c2ccc(OC(F)(F)F)cc2)C(C)C)c(=O)[nH]1 (single isomer, unassigned) [Example 85, (S)- or (R)-3-(Hydroxymethyl)-6-methyl-1-(2-methyl-1-(4-(trifluoromethoxy)phenyl)propyl)-1H-pyrazolo[3,4-d]pyrimidin-4(5H)-one] | 0.89 |
| Cc1nc2c(c(CO)nn2C(c2ccc(C(F)(F)F)c(F)c2)C(C)C)c(=O)[nH]1 (single isomer, unassigned) [Example 87, (S)- or (R)-1-(1-(3-Fluoro-4-(trifluoromethyl)phenyl)-2-methylpropyl)-3-(hydroxymethyl)-6-methyl-1H-pyrazolo[3,4-d]pyrimidin-4(5H)-one] | 3.3 |
| Cc1nc2c(c(CO)nn2C(c2ccc(C(C)(C)C)cc2)C2CC2)c(=O)[nH]1 (single isomer, unassigned) [Example 88, (R)- or (S)-1-((4-tert-Butylphenyl)(cyclopropyl)methyl)-3-(hydroxymethyl)-6-methyl-1H-pyrazolo[3,4-d]pyrimidin-4(5H)-one] | 45 |
| Cc1nc2c(c(CO)nn2C(c2ccc(C(C)(C)C)cc2)C2CC2)c(=O)[nH]1 (single isomer, unassigned) [Example 89, (S)- or (R)-1-((4-tert-Butylphenyl)(cyclopropyl)methyl)-3-(hydroxymethyl)-6-methyl-1H-pyrazolo[3,4-d]pyrimidin-4(5H)-one] | 0.33 |
| Cc1nc2c(c(CO)nn2C(c2ccc(C(F)(F)F)c(F)c2)C2CC2)c(=O)[nH]1 (single isomer, unassigned) [Example 90, (R)- or (S)-1-(Cyclopropyl(3-fluoro-4-(trifluoromethyl)phenyl)methyl)-3-(hydroxymethyl)-6-methyl-1H-pyrazolo[3,4-d]pyrimidin-4(5H)-one] | 78 |

| Compound | Ki [nM] |
| --- | --- |
| Cc1nc2c(c(CO)nn2C(c2ccc(C(F)(F)F)c(F)c2)C2CC2)c(=O)[nH]1 (single isomer, unassigned) [Example 91, (S)- or (R)-1-(Cyclopropyl(3-fluoro-4-(trifluoromethyl)phenyl)methyl)-3-(hydroxymethyl)-6-methyl-1H-pyrazolo[3,4-d]pyrimidin-4(5H)-one] | 1.1 |
| Cc1nc2c(c(CO)nn2C(c2ccc(OC(F)(F)F)c(F)c2)C2CC2)c(=O)[nH]1 (single isomer, unassigned) [Example 92, (R)- or (S)-1-(Cyclopropyl(3-fluoro-4-(trifluoromethoxy)phenyl)methyl)-3-(hydroxymethyl)-6-methyl-1H-pyrazolo[3,4-d]pyrimidin-4(5H)-one] | 8.3 |
| Cc1nc2c(c(CO)nn2C(c2ccc(OC(F)(F)F)c(F)c2)C2CC2)c(=O)[nH]1 (single isomer, unassigned) [Example 93, (S)- or (R)-1-(Cyclopropyl(3-fluoro-4-(trifluoromethoxy)phenyl)methyl)-3-(hydroxymethyl)-6-methyl-1H-pyrazolo[3,4-d]pyrimidin-4(5H)-one] | 1.7 |
| COc1ccc(Cc2nc3c(c(CF)nn3C(C)c3ccc(C(F)(F)F)cc3)c(=O)[nH]2)cc1 (single isomer, unassigned) [Example 219, (S)- or (R)-3-(Fluoromethyl)-6-(4-methoxybenzyl)-1-(1-(4-(trifluoromethyl)phenyl)ethyl)-1H-pyrazolo[3,4-d]pyrimidin-4(5H)-one] | 0.96 |
| COc1cccc(Cc2nc3c(c(CF)nn3C(C)c3ccc(C(F)(F)F)cc3)c(=O)[nH]2)c1 (single isomer, unassigned) [Example 221, (S)- or (R)-3-(Fluoromethyl)-6-(3-methoxybenzyl)-1-(1-(4-(trifluoromethyl)phenyl)ethyl)-1H-pyrazolo[3,4-d]pyrimidin-4(5H)-one] | 1.3 |
| Cc1nc2c(c(CF)nn2C(c2ccc(OC(F)(F)F)cc2)C2CC2)c(=O)[nH]1 (single isomer, unassigned) [Example 224, (R)- or (S)-1-(Cyclopropyl(4-(trifluoromethoxy)phenyl)methyl)-3-(fluoromethyl)-6-methyl-1,5-dihydro-4H-pyrazolo[3,4-d]pyrimidin-4-one] | 0.48 |
| Cc1nc2c(c(CF)nn2C(c2ccc(C(F)(F)F)c(F)c2)C2CC2)c(=O)[nH]1 (single isomer, unassigned) [Example 226, (R)- or (S)-1-(Cyclopropyl(3-fluoro-4-(trifluoromethyl)phenyl)methyl)-3-(fluoromethyl)-6-methyl-1,5-dihydro-4H-pyrazolo[3,4-d]pyrimidin-4-one] | 0.32 |
| Cc1nc2c(c(CF)nn2C(c2ccc(OC(F)(F)F)c(F)c2)C2CC2)c(=O)[nH]1 (single isomer, unassigned) [Example 228, (R)- or (S)-1-(Cyclopropyl(3-fluoro-4-(trifluoromethoxy)phenyl)methyl)-3-(fluoromethyl)-6-methyl-1,5-dihydro-4H-pyrazolo[3,4-d]pyrimidin-4-one] | 0.42 |
| Cc1nc2c(c(CF)nn2C(c2ccc(C(F)(F)F)cc2)C(C)(C)C)c(=O)[nH]1 (single isomer, unassigned) [Example 234, (S)- or (R)-1-(2,2-Dimethyl-1-(4-(trifluoromethyl)phenyl)propyl)-3-(fluoromethyl)-6-methyl-1H-pyrazolo[3,4-d]pyrimidin-4(5H)-one] | 11 |
| Cc1nc2c(c(CCO)nn2C(C)c2ccc(C(F)(F)F)cc2)c(=O)[nH]1 (single isomer, unassigned) [Example 250] | 1.9 |
| Cc1nc2c(c(C#N)nn2C(C)c2ccc(C(F)(F)F)cc2)c(=O)[nH]1 (single isomer, unassigned) [Example 252] | 16 |
| Cc1nc2c(c(C(F)(F)CO)nn2C(C)c2ccc(C(F)(F)F)cc2)c(=O)[nH]1 (single isomer, unassigned) [Example 255] | 1.6 |
| COCc1nn(C(C)c2ccc(C(F)(F)F)cc2)c2nc(C)[nH]c(=O)c12 (single isomer, unassigned) [Example 279] | 17 |
| Cc1nc2c(c(CC#N)nn2C(C)c2ccc(C(F)(F)F)cc2)c(=O)[nH]1 (single isomer, unassigned) [Example 280] | 77 |
| Cc1nc2c(c(CC#N)nn2C(C)c2ccc(C(F)(F)F)cc2)c(=O)[nH]1 (single isomer, unassigned) [Example 281] | 2 |
